# B1: OPG: Osteoprotegerin, reference inhibitor of osteoclast differentiation (protein, UniProt O00300 22-401, looked up)
# Tumor necrosis factor …: ETFPPKYLHYDEETSHQLLCDKCPPGTYLKQHCTAKWKTVCAPCPDHYYTDSWHTSDECLYCSPVCKELQYVKQECNRTHNRVCECKEGRYLEIEFCLKHRSCPPGFGVVQAGTPERNTVCKRCPDGFFSNETSSKAPCRKHTNCSVFGLLLTQKGNATHDNICSGNSESTQKCGIDVTLCEEAFFRFAVPTKFTPNWLSVLVDNLPGTKVNAESVERIKRQHSSQEQTFQLLKLWKHQNKDQDIVKKIIQDIDLCENSVQRHIGHANLTFEQLRSLMESLPGKKVGAEDIEKTIKACKPSDQILKLLSLWRIKNGDQDTLKGLMHALKHSKTYHFPKTVTQSLKKTIRFLHSFTMYKLYQKLFLEMIGNQVQSVKISCL
# Legend:
# [1] = test system: KS483 mouse osteoprogenitor cells; experiment: Osteoblast activity assay (PINP at day 11, calcium deposition at day 13); type: cell-based; conditions: reference stimulator, 10 nM
# Method: The effects on osteoblasts were studied using KS483 mouse osteoprogenitor cells that can be induced to differentiate into bone-forming osteoblasts. […] In the osteoblast differentiation assay, the cells were cultured for 8 days, after which the formed mature osteoblasts were quantitated by measuring the amount of intracellular alkaline phosphatase (ALP) activity. […] A culture system was established that can be used as an in vitro model for studying the effects of anabolic and estrogen-like compounds on osteoblast differentiation and activity. In this culture system mouse KS483 cells first proliferate and then differentiate into osteoblasts capable of forming mineralized bone nodules in the presence of ascorbic acid and ß-glycerophosphate (Fagerlund et al. 2009). The test and reference compounds are added into the cell cultures concomitantly with the medium change, and their effects on the differentiation and activity of osteoblasts are determined. Cellular ALP, a marker of osteoblast differentiation, is determined from the cell lysates as described earlier (Lowry et al. 1954). Secreted PINP, a marker of organic bone matrix formation, is determined from the culture medium using a commercially available method (Rat/Mouse PINP EIA, IDS Ltd, Boldon, UK). Calcium deposition, an index of inorganic bone matrix formation, is measured using a commercially available calcium assay (Roche Diagnostics). Mouse KS483 cells were cultured in T-75 tissue culture flasks in aMEM supplemented with 10% charcoal-stripped fetal bovine serum until 80-90% confluence. The cells were incubated in a CO2 incubator in humidified atmosphere of 95% air and 5% carbon dioxide at 37° C. After reaching 80-90% confluence, subcultures were prepared. Cells were removed from the flasks with trypsin treatment and counted. For induction of the maturation of osteoblasts and bone formation, the immature osteoblastic cells were plated in type I collagen-coated 96-well plates. The cells were cultured for 13 days with a supplement of ascorbic acid (50 μg/ml) and ß-glycerophosphate (5 mM), and half of the media was changed every 3-4 days. The test compound and control substance (E2) were added in the beginning of the culture period and when the medium was changed. Secreted PINP was measured from the culture medium at day 11 as a marker of organic bone matrix formation. The cultures were stopped at day 13 by removing the culture media from the wells and adding hydrochloric acid. Calcium deposited into the formed bone matrix was quantitated by using VICTOR2™ Multilabel Counter (PerkinElmer, Waltham, Mass., USA).
# [2] = test system: KS483 mouse osteoprogenitor cells; experiment: Osteoblast differentiation assay (cellular ALP activity at day 8); type: cell-based; conditions: reference stimulator, 10 nM
# Method: In the third part, KS483 mouse osteoprogenitor cells were cultured for 8 days, after which the formed mature osteoblasts were quantitated by measuring the amount of intracellular alkaline phosphatase (ALP) activity. […] The effects on osteoblasts were studied using KS483 mouse osteoprogenitor cells that can be induced to differentiate into bone-forming osteoblasts. […] In the osteoblast differentiation assay, the cells were cultured for 8 days, after which the formed mature osteoblasts were quantitated by measuring the amount of intracellular alkaline phosphatase (ALP) activity. […] A culture system was established that can be used as an in vitro model for studying the effects of anabolic and estrogen-like compounds on osteoblast differentiation and activity. In this culture system mouse KS483 cells first proliferate and then differentiate into osteoblasts capable of forming mineralized bone nodules in the presence of ascorbic acid and ß-glycerophosphate (Fagerlund et al. 2009). The test and reference compounds are added into the cell cultures concomitantly with the medium change, and their effects on the differentiation and activity of osteoblasts are determined. Cellular ALP, a marker of osteoblast differentiation, is determined from the cell lysates as described earlier (Lowry et al. 1954). Secreted PINP, a marker of organic bone matrix formation, is determined from the culture medium using a commercially available method (Rat/Mouse PINP EIA, IDS Ltd, Boldon, UK). Calcium deposition, an index of inorganic bone matrix formation, is measured using a commercially available calcium assay (Roche Diagnostics). Mouse KS483 cells were cultured in T-75 tissue culture flasks in aMEM supplemented with 10% charcoal-stripped fetal bovine serum until 80-90% confluence. The cells were incubated in a CO2 incubator in humidified atmosphere of 95% air and 5% carbon dioxide at 37° C. After reaching 80-90% confluence, subcultures were prepared. Cells were removed from the flasks with trypsin treatment and counted. For induction of the maturation of osteoblasts and bone formation, the immature osteoblastic cells were plated in type I collagen-coated 96-well plates. The cells were cultured for 8 days with a supplement of ascorbic acid ([…]), and half of the media was changed every 3-4 days. The test compound and control substance (E2) were added in the beginning of the culture period and when the medium was changed. The cultures were stopped at day 8 by removing the culture media from the wells, and cell lysates were prepared. Cellular ALP activity and total protein content (Protein Assay, Bio-Rad Laboratories Inc, CA, USA) were quantitated by using VICTOR2™ Multilabel Counter (PerkinElmer, Waltham, Mass., USA).
# [3] = test system: rat ovariectomy (OVX) model; experiment: Short-term effects on body weight, uterine weight and bone turnover markers in the rat ovariectomy (OVX) model; type: in vivo, rat (Sprague-Dawley); parameters: key to Body weight, change during the first week / Body weight, change during the in-life phase / Relative uterine weight at day 14 / Serum PINP levels, change during the in-life phase / Serum OC levels, change during the in-life phase / Serum CTX levels, change during the in-life phase / Serum TRACP 5b activity, change during the in-life phase: An upwards arrow (↑) indicates a statistically significant increase; a downwards arrow (↓) a statistically significant decrease; One asterisk (*) indicates a statistical significance with a p-value<0.05; two asterisks (**) with a p-value<0.01; three asterisks (***) with a p-value<0.001; NS=Non-significant
# Description: The objective of this study was to investigate short-term effects of Compound 1 on biochemical serum markers of bone metabolism in a prevention study in a rat ovariectomy (OVX) model for postmenopausal osteoporosis. 17β-estradiol (E2) was used as a reference compound. The following five experimental groups were included in the study:
# Each group contained eight female rats (Sprague-Dawley) that were three months of age at the beginning of in-life phase of the study. Before the start of the in-life phase, animals were weighed, their blood samples were harvested, and animals were randomized to study groups by stratification according to body weight and serum levels of procollagen type I N-terminal propeptide (PINP). At the beginning of the in-life phase, animals were weighed and operated. Treatment was started one day after the operations and continued once a day for two weeks. Sterile water was used as vehicle in groups 1 and 2. Body weight was determined after one week of treatment and treatment doses were adjusted accordingly. After two weeks of treatment, animals were weighed, their blood samples were harvested, animals were terminated, and their relative uterine weight was determined. For analyzing short-term effects of treatments, levels of four bone metabolism biomarkers were determined in serum samples harvested before the start and at the end of the in-life phase. These biomarkers included PINP as a marker of bone formation, N-terminal mid-fragment of osteocalcin (OC) as a general marker of bone turnover, C terminal cross-linked telopeptides of type I collagen (CTX) as a marker of bone resorption, and tartrate-resistant acid phosphatase isoform 5b (TRACP 5b) as a marker of osteoclast number. Serum levels at day −7 were used as baseline levels and serum levels at day 14 as levels affected by operations and treatments.
# Each group contained eight female rats (Sprague-Dawley) that were three months of age at the beginning of in-life phase of the study. Animals were randomized to study groups by stratification according to their body weight and serum levels of procollagen type I N-terminal propeptide (PINP) measured one week before the start of the in-life phase (at day −7). At the beginning of the in-life phase (at day 0), animals were weighed, animals in groups 2-5 were ovariectomized, and animals in group 1 SHAM-operated. Treatment was started one day after the operations and continued once a day for two weeks (up to day 13). Sterile water was used as vehicle in groups 1 and 2. Body weight was determined at the beginning of the in-life phase (at day 0), one week after the start of the inlife phase (at day 7), and at the end of the in-life phase (at day 14). Treatment doses were adjusted according to the latest body weight obtained. After two weeks of treatment (at day 14), animals were weighed, their blood samples were harvested, animals were terminated, and their relative uterine weight was determined. For analyzing short-term effects of treatments, levels of four bone metabolism biomarkers were measured in serum samples harvested before the start of the in-life phase (at day −7) and at the end of the in-life phase (at day 14). These biochemical serum markers included PINP, N-terminal mid-fragment of osteocalcin (OC), C-terminal cross-linked telopeptides of type I collagen (CTX), and tartrate-resistant acid phosphatase isoform 5b (TRACP 5b). Serum levels obtained at day −7 were used as baseline levels and serum levels obtained at day 14 as levels affected by surgical operations and treatments.
# Biochemical markers of bone metabolism are useful tools for monitoring osteoporosis therapy and for prediction of fracture risk and long-term changes in bone mineral density (Cremers et al. 2008). […]
# [4] = test system: human bone marrow-derived CD34+ osteoclast precursor cells; experiment: Osteoclast differentiation assay (secreted TRACP 5b at day 7); type: cell-based; conditions: reference inhibitor, 5 nM
# Method: The study was performed in four parts. In the first part, human bone marrow-derived CD34+ osteoclast precursor cells were cultured on bovine bone slices for 7 days, after which the formed osteoclasts were quantitated by measuring tartrate-resistant acid phosphatase 5b activity (TRACP 5b) in the culture medium.
# The objective of this study was to investigate the effects of Compound 1 selected by the Sponsor on differentiation and activity of human osteoclasts and mouse osteoblasts in vitro. The effects on osteoclasts were studied using a model where bone marrow-derived human osteoclast precursor cells are cultured on bovine bone slices for 7 days in conditions favouring osteoclast differentiation, and allowed to differentiate into bone-resorbing osteoclasts. After completion of osteoclast differentiation at day 7, the culture medium was removed and new culture medium favouring osteoclast activity was added into the wells. The mature osteoclasts were then cultured for an additional 3 days, allowing them to resorb bone. In the osteoclast differentiation assay, the test compounds and a reference inhibitor osteoprotegerin (OPG) were added into cultures at day 0. In the osteoclast activity assay, the test compounds and a reference inhibitor E64 were added into cultures at day 7. Seven concentrations in 8 replicates were tested in both assays. Tartrate-resistant acid phosphatase 5b activity (TRACP 5b) was measured from the culture medium collected at day 7 as an index of the number of osteoclasts formed in each well during the differentiation period. C-terminal cross-linked telopeptides of type I collagen (CTX) was measured from the culture medium collected at day 10 to quantitate bone resorption during days 7-10.
# A human osteoclast culture system was developed for use in this study where CD34+ osteoclast precursor cells derived from human bone marrow (Poietics® Human Osteoclast Precursors, Lonza, Walkersville, USA) are cultured on bovine bone slices in the presence of appropriate growth factors, including M-CSF and RANK-ligand (Rissanen et al. 2009). The cells are first allowed to differentiate into mature bone-resorbing osteoclasts, and the formed osteoclasts are then allowed to resorb bone. The test and reference compounds are added into the cell cultures at the beginning of the differentiation and/or the resorption period, and their effects on the differentiation and/or resorbing activity of osteoclasts are determined.
# Secreted TRACP 5b is determined from the culture medium after the differentiation period using a commercially available method (BoneTRAPÒ, IDS Ltd, Boldon, UK). Secreted TRACP 5b describes accurately the number of osteoclasts formed in each well during the differentiation period. CTX is determined from the culture medium after the resorption period using a commercially available method (CrossLapsÒ for cultures, IDS Ltd, Boldon, UK). CTX describes accurately the amount of bone collagen degradation products released into the culture medium in each well during the resorption period.
# In this study, human bone marrow-derived CD34+ stem cells (10000 cells/well) were suspended in culture medium and allowed to attach to bovine bone slices in 96-well tissue culture plates. The culture medium (containing 10% FBS, OCP BulletKit® Lonza, Walkersville, USA) was supplemented with appropriate amounts of important growth factors favoring osteoclast differentiation and activity, including M-CSF (33 ng/ml, OCP BulletKit® Lonza, Walkersville, USA) and RANK-ligand (66 ng/ml, OCP BulletKit® Lonza, Walkersville, USA) in 200 μl of medium. The cells were incubated in a CO2 incubator in humidified atmosphere of 95% air and 5% carbon dioxide at 37° C. for 7 days. The test compounds and reference compound OPG were added at day 0. Supernatants collected at day 7 were stored at −70° C. until analysis of TRACP 5b. TRACP 5b was measured from the culture medium (20 μl/sample) using VICTOR2™ Multilabel Counter (PerkinElmer, Waltham, Mass., USA). […]
# [5] = OVX rats vs OVX vehicle, E2 4 μg/kg/d s.c.
# [6] = OVX rats, 17β-estradiol 4 μg/kg/d s.c., two weeks
molecule,measurement,setting,value
"C[C@]12CC[C@@H]3c4ccc(O)cc4CC[C@H]3[C@@H]1CC[C@@H]2O [Compound E2, 17β-estradiol, reference compound]",effect on osteoblast activity,[1],stimulated significantly
same,effect on osteoblast differentiation,[2],stimulated significantly
same,"Body weight, change during the first week",[3]; [5],↓ **
same,"Body weight, change during the in-life phase",[3]; [5],↓ **
same,Relative uterine weight at day 14,[3]; [5],↑ **
same,"Serum CTX levels, change during the in-life phase",[3]; [5],↓ ***
same,"Serum OC levels, change during the in-life phase",[3]; [5],↓ ***
same,"Serum PINP levels, change during the in-life phase",[3]; [5],↓ **
same,"Serum TRACP 5b activity, change during the in-life phase",[3]; [5],NS
same,OVX-induced gain in body weight,[3]; [6],prevented
same,OVX-induced increase in serum CTX levels,[3]; [6],prevented
same,OVX-induced increase in serum OC levels,[3]; [6],prevented
same,OVX-induced increase in serum PINP levels,[3]; [6],prevented
same,OVX-induced reduction in relative uterine weight,[3]; [6],prevented
same,OVX-induced reduction in serum TRACP 5b activity,[3]; [6],did not affect
B1,effect on osteoclast differentiation,[4],inhibited significantly

# — patent publication US10166225B2, “Method for treating osteoporosis” (Exelixis, Inc., priority 2011, dated 2019)
